The text below walks through data of patent US10945685B2, “System and method for normalizing standardized uptake values in brain positron emission tomography (PET) images” (New York University, priority 2018, dated 2021).

Assay [1] addresses T1, Monoamine oxidase B (MAO-B) (Homo sapiens, UniProt P27338).
T1 construct: from tissue; host or cells: brain of living AD patients and normal control subjects (in vivo PET)
T1 sequence (P27338 1-520): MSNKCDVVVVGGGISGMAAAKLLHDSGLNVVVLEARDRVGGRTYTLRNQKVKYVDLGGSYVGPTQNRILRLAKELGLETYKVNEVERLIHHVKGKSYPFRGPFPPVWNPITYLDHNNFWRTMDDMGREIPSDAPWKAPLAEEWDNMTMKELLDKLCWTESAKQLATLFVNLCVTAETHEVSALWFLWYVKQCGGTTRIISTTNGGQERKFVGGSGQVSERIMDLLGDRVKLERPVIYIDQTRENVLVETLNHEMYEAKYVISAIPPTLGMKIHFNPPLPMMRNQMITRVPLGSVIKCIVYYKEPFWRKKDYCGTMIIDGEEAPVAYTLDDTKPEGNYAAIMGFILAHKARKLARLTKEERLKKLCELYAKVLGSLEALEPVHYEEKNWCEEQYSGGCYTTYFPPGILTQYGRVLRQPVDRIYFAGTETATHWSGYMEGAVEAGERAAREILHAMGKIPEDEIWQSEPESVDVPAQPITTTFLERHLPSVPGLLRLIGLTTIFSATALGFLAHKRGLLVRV
The note with it: recent data, background; cited from earlier work.

Assay [2] has as its target T1, Monoamine oxidase B (MAO-B). Nature of the assay: MAO-B off-target binding of tau PET tracer. It is filed as in vivo. The conditions noted are these: SUVP data, Example I.
For assay [3], the target named is T2, Monoamine oxidase A (MAO-A) (Homo sapiens, UniProt P21397).
T2 sequence (P21397 1-527): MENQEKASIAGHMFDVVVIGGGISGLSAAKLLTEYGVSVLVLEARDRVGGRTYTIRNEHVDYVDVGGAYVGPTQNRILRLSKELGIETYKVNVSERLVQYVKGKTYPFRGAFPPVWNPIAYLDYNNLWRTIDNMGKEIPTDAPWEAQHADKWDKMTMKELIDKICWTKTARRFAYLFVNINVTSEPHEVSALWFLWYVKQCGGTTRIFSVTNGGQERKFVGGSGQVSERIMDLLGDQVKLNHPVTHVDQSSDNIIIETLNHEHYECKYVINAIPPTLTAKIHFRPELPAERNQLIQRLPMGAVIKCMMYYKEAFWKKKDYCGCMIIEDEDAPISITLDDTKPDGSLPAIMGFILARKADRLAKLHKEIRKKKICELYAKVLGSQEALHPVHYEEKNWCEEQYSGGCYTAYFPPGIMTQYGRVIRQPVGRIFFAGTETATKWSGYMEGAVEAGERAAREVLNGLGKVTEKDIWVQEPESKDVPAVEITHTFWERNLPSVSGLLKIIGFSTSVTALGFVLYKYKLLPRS
The conditions noted are these: recent data, background; cited from earlier work.

In another assay the test system is tau. As to the kind of experiment: Example II: global and regional tau binding by SUVR, PERSI and SUVP, 42 NL and 22 AD. The format is in vivo, human. The note with it: with SUVR, 64 subjects. An excerpt: Example II, as discussed below, provides an exemplary embodiment comparing tau PET uptake quantification methods based on a 18F-AV-1451 tracer. Quantitative measurement of tau bindings from PET tracers (such as AV1451) is crucial in the PET-based study of tauopathies (such as Alzheimer's). The standardized uptake value ratio (SUVR) method has been challenged by the off-target binding in reference region. An unbiased tau binding quantification may be achieved via several different methods, including the Parametric Estimate of Reference Signal Intensity (PERSI) method by Avid Radiopharmaceutical and standardized uptake value peak-alignment (SUVP) method. In Example II, we compared the sensitivity of SUVR, PERSI and SUVP methods on the same PET dataset, in both global and local regions.
Using SUVR, PERSI, and SUVP, we evaluated the global and regional tau binding of 18F-AV-1451 on 64 subjects, with 42 cognitively normal (NL) and 22 Alzheimer's disease (AD), and compared the group differences of tau binding under the three different methods. Cerebral cortex was used as ROI for global binding test. The average SUVP value in ROIs is computed by averaging all positive SUVP values (SUVP>0) within the ROI, and positive binding percentage (PBP) for SUVP is defined as the ratio of voxel number with SUVP>1.5 over the total voxel number within the ROI.

The structures appear in SMILES notation.

As to `CNc1ccc(-c2ccc3cc(OC[C@H](O)CF)ccc3n2)cn1` [THK5351], the MAO-B binding entry in assay [1] was “widespread Monoamine oxidase B (MAO-B) binding”. In assay [2], the MAO-B off-target binding entry is “MAO-B off-target binding in THK5351 was observed”.
For the molecule `[18F]c1ccc(-c2ccc3c(c2)[nH]c2ccncc23)cn1` [AV-1451], in assay [3], the MAO-A binding result was “some Monoamine oxidase A (MAO-A) binding”. Besides, the “tau binding, AD subjects versus cognitively normal NL subjects” value with tau was “significantly higher tau binding”.
